For this assay, the target named is c-Src (Homo sapiens, UniProt P12931). The experiment in a line: c-Src protein kinase assay. Format: biochemical. The settings on record: Table 5. The method, then: Several of the invention compounds have been evaluated in a standard assay to measure their ability to inhibit cellular Src protein kinase (c-Src). […] The assay was carried out as follows:
C-Src kinase was purified from baculovirus infected insect cell lysates using an antipeptide monoclonal antibody directed against the N-terminal amino acids (amino acids 2-17) of c-Src. The antibody, covalently linked to 0.65 μm latex beads, was added to a suspension of insect cell lysis buffer comprised of 150 mM NaCl, 50 mM Tris pH 7.5, 1 mM DTT, 1% NP-40, 2 mM EGTA, 1 mM sodium vanadate, 1 mM PMSF, 1 μg/mL each of leupeptin, pepstatin, and aprotinin. Insect cell lysate containing c-Src protein was incubated with these beads for 3 to 4 hours at 4° C. with rotation. At the end of the lysate incubation, the beads were rinsed three times in lysis buffer, resuspended in lysis buffer containing 10% glycerol, and frozen. These latex beads were thawed, rinsed three times in assay buffer (40 mM Tris, pH 7.5, 5 mM […]) and suspended in the same buffer. […] The filters were then punched, counted in a liquid scintillation counter, and the data examined for inhibitory activity in comparison to a known inhibitor such as erbstatin. […]

For 1 compound, IC50 results are on record in US6498163B1, “Pyrido[2,3-D]pyrimidines and 4-aminopyrimidines as inhibitors of cellular proliferation” (Warner-Lambert Company, priority 1997, dated 2002).

Chain of c-Src (P12931 whole entry, species assumed, the tested form may be a part): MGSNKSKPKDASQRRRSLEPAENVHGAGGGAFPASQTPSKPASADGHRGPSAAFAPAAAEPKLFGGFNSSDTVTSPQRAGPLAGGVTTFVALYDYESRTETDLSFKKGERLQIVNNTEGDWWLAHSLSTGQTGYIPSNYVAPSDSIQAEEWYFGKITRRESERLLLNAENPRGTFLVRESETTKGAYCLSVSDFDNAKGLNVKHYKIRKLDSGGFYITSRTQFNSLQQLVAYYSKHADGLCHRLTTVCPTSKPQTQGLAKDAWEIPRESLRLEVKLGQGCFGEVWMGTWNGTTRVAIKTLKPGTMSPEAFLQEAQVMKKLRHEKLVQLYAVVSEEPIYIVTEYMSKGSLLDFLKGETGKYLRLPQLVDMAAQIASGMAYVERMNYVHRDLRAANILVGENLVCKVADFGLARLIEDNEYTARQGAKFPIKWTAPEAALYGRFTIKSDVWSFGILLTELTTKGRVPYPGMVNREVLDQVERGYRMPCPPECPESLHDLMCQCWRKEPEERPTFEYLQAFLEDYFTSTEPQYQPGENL

For the compound `CC1CN(c2ccc(Nc3ncc4ccc(=O)n(C5CCCCC5)c4n3)cc2)CC(C)N1CCO` (stereo not shown) [Example 143, 8-Cyclohexyl-2-{4-[4-(2-hydroxy-ethyl)-3,5-dimethyl-piperazin-1-yl]-phenylamino}-8H-pyrido[2,3-d]pyrimidin-7-one], the midpoint of inhibition, the IC50, lay at 1850 nM.
